Results reported in patent US20260176320A1, “MODULATORS OF G-PROTEIN COUPLED RECEPTORS” (priority 2018, published 2026).
Read-outs that look alike come from different tables or passages of the source.

What was measured:
[1] = molecular target: GLP-1R (Homo sapiens, UniProt P43220); assay: HitHunter cAMP assay (GLP-1R); format: cell-based; conditions: cAMP; for Emax: read-out: (Emax) GLP-1R
In short: (§1)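 Suspension cells (10,000/well) in HBSS with 10 mM HEPES, 625 μM IBMX, 0.2% BSA exposed to 22-point 2-fold agonist series in duplicate for 30 min at room temperature. cAMP measured by antibody immunocompetition with overnight development, luminescence read-out.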

[2] = molecular target: T1, GIP-R (Homo sapiens, UniProt P48546); assay: HitHunter cAMP assay (GIP-R); format: cell-based; conditions: cAMP; for Emax: read-out: (Emax) GIP-R
T1 sequence (P48546 22-466): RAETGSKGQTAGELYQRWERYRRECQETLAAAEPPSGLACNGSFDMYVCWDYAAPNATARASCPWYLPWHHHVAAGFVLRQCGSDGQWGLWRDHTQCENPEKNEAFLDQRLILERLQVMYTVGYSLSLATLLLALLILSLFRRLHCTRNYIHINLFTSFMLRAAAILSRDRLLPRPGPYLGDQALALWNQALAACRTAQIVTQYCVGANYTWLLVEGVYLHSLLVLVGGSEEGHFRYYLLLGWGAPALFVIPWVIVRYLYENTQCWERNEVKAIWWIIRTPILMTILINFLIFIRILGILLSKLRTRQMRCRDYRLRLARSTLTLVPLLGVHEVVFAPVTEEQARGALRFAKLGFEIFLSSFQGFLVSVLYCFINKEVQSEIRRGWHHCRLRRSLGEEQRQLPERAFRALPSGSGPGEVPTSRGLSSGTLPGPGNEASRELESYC
In short: as §1

[3] = Table 3, read-out: EC50 GLP-1R/nM
[4] = Table 3A, read-out: EC50 GLP-1R/nM
[5] = Table 3, read-out: EC50 GIP-R/nM
[6] = Table 3A, read-out: EC50 GIP-R/nM

Chain of GLP-1R (P43220 24-463): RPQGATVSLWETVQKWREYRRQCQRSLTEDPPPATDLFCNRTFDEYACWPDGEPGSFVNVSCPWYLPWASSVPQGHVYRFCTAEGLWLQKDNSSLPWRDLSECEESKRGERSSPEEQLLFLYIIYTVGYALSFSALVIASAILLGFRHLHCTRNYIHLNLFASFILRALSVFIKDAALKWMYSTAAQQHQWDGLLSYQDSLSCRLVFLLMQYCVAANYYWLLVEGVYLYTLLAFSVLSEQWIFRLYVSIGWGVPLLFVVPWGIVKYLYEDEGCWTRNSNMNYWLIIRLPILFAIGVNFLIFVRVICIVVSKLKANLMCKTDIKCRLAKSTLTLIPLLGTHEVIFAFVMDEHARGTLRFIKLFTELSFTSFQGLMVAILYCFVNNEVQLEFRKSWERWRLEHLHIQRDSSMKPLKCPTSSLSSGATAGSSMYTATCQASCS

Row | SMILES | EC50 ([1]; EC50 GLP-1R/nM, Table 3) [nM] | EC50 ([1]; EC50 GLP-1R/nM, Table 3A) [nM] | Emax at 1 µM ([1]; read-out: (Emax) GLP-1R at 1 μM, Table 3) [%] | Emax at 1 µM ([1]; read-out: (Emax) GLP-1R at 1 μM, Table 3A) [%] | EC50 ([2]; EC50 GIP-R/nM, Table 3) [nM] | EC50 ([2]; EC50 GIP-R/nM, Table 3A) [nM] | Emax ([2]; Table 3) [%] | Emax ([2]; Table 3A) [%] | Emax ([1]; Table 3) [%] | Emax ([1]; Table 3A) [%] | EC50 [1, 3] [nM] | EC50 [1, 4] [nM] | EC50 [2, 5] [nM] | EC50 [2, 6] [nM] | Emax at 1 µM ([2]; read-out: (Emax) GIP-R at 1 μM, Table 3) [%] | Emax at 1 µM ([2]; read-out: (Emax) GIP-R at 1 μM, Table 3A) [%]
1 | CC[C@H](C)[C@H](NC(=O)[C@H](CO)NC(=O)[C@H](Cc1ccc(O)cc1)NC(=O)[C@H](CC(=O)O)NC(=O)[C@H](CO)NC(=O)[C@@H](NC(=O)[C@H](Cc1ccccc1)NC(=O)[C@@H](NC(=O)CNC(=O)[C@H](CCC(=O)O)NC(=O)CSCC(=O)NCCN1C(=O)c2cccc([N+](=O)[O-])c2C1=O)[C@@H](C)O)[C@@H](C)O)C(=O)N[C@@H](Cc1ccc(O)cc1)C(=O)N[C@@H](CC(C)C)C(=O)N[C@@H](CC(=O)O)C(=O)N[C@@H](CCCCN)C(=O)N[C@@H](CCC(N)=O)C(=O)N[C@@H](C)C(=O)N[C@@H](C)C(=O)NC(C)(C)C(=O)N[C@@H](CCC(=O)O)C(=O)N[C@@H](Cc1ccccc1)C(=O)N[C@H](C(=O)N[C@@H](CC(N)=O)C(=O)N[C@@H](Cc1c[nH]c2ccccc12)C(=O)N[C@@H](CC(C)C)C(=O)N[C@@H](CC(C)C)C(=O)N[C@@H](C)C(=O)NCC(=O)NCC(=O)N1CCC[C@H]1C(=O)N[C@@H](CO)C(=O)N[C@@H](CO)C(=O)NCC(=O)N[C@@H](C)C(=O)N1CCC[C@H]1C(=O)N1CCC[C@H]1C(=O)N1CCC[C@H]1C(=O)N[C@@H](CO)C(=O)N[C@@H](CCCCN)C(N)=O)C(C)C [Compound 108] | > 1000 | > 1000 | 18 | 18 | 10 to 100 | 10 to 100 | 69 | 69 |  |  |  |  |  |  |  | 
2 | CC[C@H](C)[C@H](NC(=O)[C@H](CO)NC(=O)[C@H](Cc1ccc(O)cc1)NC(=O)[C@H](CC(=O)O)NC(=O)[C@H](CO)NC(=O)[C@@H](NC(=O)[C@H](Cc1ccccc1)NC(=O)[C@@H](NC(=O)CNC(=O)[C@H](CCC(=O)O)NC(=O)CSCC(=O)NCCN1C(=O)[C@H]2C[C@H]2C1=O)[C@@H](C)O)[C@@H](C)O)C(=O)N[C@@H](Cc1ccc(O)cc1)C(=O)N[C@@H](CC(C)C)C(=O)N[C@@H](CC(=O)O)C(=O)N[C@@H](CCCCN)C(=O)N[C@@H](CCC(N)=O)C(=O)N[C@@H](C)C(=O)N[C@@H](C)C(=O)NC(C)(C)C(=O)N[C@@H](CCC(=O)O)C(=O)N[C@@H](Cc1ccccc1)C(=O)N[C@H](C(=O)N[C@@H](CC(N)=O)C(=O)N[C@@H](Cc1c[nH]c2ccccc12)C(=O)N[C@@H](CC(C)C)C(=O)N[C@@H](CC(C)C)C(=O)N[C@@H](C)C(=O)NCC(=O)NCC(=O)N1CCC[C@H]1C(=O)N[C@@H](CO)C(=O)N[C@@H](CO)C(=O)NCC(=O)N[C@@H](C)C(=O)N1CCC[C@H]1C(=O)N1CCC[C@H]1C(=O)N1CCC[C@H]1C(=O)N[C@@H](CO)C(=O)N[C@@H](CCCCN)C(N)=O)C(C)C [Compound 109] | 1 to 10 | 1 to 10 |  |  | 10 to 100 | 10 to 100 | 36 | 36 | 101 | 101 |  |  |  |  |  | 
3 | CC[C@H](C)[C@H](NC(=O)[C@H](CO)NC(=O)[C@H](Cc1ccc(O)cc1)NC(=O)[C@H](CC(=O)O)NC(=O)[C@H](CO)NC(=O)[C@@H](NC(=O)[C@H](Cc1ccccc1)NC(=O)[C@@H](NC(=O)CNC(=O)[C@H](CCC(=O)O)NC(=O)CSCC(=O)NCCN1C(=O)[C@@H]2[C@H](C1=O)C2(C)C)[C@@H](C)O)[C@@H](C)O)C(=O)N[C@@H](Cc1ccc(O)cc1)C(=O)N[C@@H](CC(C)C)C(=O)N[C@@H](CC(=O)O)C(=O)N[C@@H](CCCCN)C(=O)N[C@@H](CCC(N)=O)C(=O)N[C@@H](C)C(=O)N[C@@H](C)C(=O)NC(C)(C)C(=O)N[C@@H](CCC(=O)O)C(=O)N[C@@H](Cc1ccccc1)C(=O)N[C@H](C(=O)N[C@@H](CC(N)=O)C(=O)N[C@@H](Cc1c[nH]c2ccccc12)C(=O)N[C@@H](CC(C)C)C(=O)N[C@@H](CC(C)C)C(=O)N[C@@H](C)C(=O)NCC(=O)NCC(=O)N1CCC[C@H]1C(=O)N[C@@H](CO)C(=O)N[C@@H](CO)C(=O)NCC(=O)N[C@@H](C)C(=O)N1CCC[C@H]1C(=O)N1CCC[C@H]1C(=O)N1CCC[C@H]1C(=O)N[C@@H](CO)C(=O)N[C@@H](CCCCN)C(N)=O)C(C)C [Compound 110] | 10 to 100 | 10 to 100 |  |  | 10 to 100 | 10 to 100 | 33 | 33 | 88 | 88 |  |  |  |  |  | 
4 | CC[C@H](C)[C@H](NC(=O)[C@H](CO)NC(=O)[C@H](Cc1ccc(O)cc1)NC(=O)[C@H](CC(=O)O)NC(=O)[C@H](CO)NC(=O)[C@@H](NC(=O)[C@H](Cc1ccccc1)NC(=O)[C@@H](NC(=O)CNC(=O)[C@H](CCC(=O)O)NC(=O)CSCC(=O)NCCN1C(=O)CN(C)C1=O)[C@@H](C)O)[C@@H](C)O)C(=O)N[C@@H](Cc1ccc(O)cc1)C(=O)N[C@@H](CC(C)C)C(=O)N[C@@H](CC(=O)O)C(=O)N[C@@H](CCCCN)C(=O)N[C@@H](CCC(N)=O)C(=O)N[C@@H](C)C(=O)N[C@@H](C)C(=O)NC(C)(C)C(=O)N[C@@H](CCC(=O)O)C(=O)N[C@@H](Cc1ccccc1)C(=O)N[C@H](C(=O)N[C@@H](CC(N)=O)C(=O)N[C@@H](Cc1c[nH]c2ccccc12)C(=O)N[C@@H](CC(C)C)C(=O)N[C@@H](CC(C)C)C(=O)N[C@@H](C)C(=O)NCC(=O)NCC(=O)N1CCC[C@H]1C(=O)N[C@@H](CO)C(=O)N[C@@H](CO)C(=O)NCC(=O)N[C@@H](C)C(=O)N1CCC[C@H]1C(=O)N1CCC[C@H]1C(=O)N1CCC[C@H]1C(=O)N[C@@H](CO)C(=O)N[C@@H](CCCCN)C(N)=O)C(C)C [Compound 112] |  |  |  |  |  |  |  |  | 94 | 94 | 10 to 100 | 10 to 100 | 10 to 100 | 10 to 100 | 26 | 26
5 | CC[C@H](C)[C@H](NC(=O)[C@H](CO)NC(=O)[C@H](Cc1ccc(O)cc1)NC(=O)[C@H](CC(=O)O)NC(=O)[C@H](CO)NC(=O)[C@@H](NC(=O)[C@H](Cc1ccccc1)NC(=O)[C@@H](NC(=O)CNC(=O)[C@H](CCC(=O)O)NC(=O)CSCC(=O)NCCN1C(=O)CC(C)CC1=O)[C@@H](C)O)[C@@H](C)O)C(=O)N[C@@H](Cc1ccc(O)cc1)C(=O)N[C@@H](CC(C)C)C(=O)N[C@@H](CC(=O)O)C(=O)N[C@@H](CCCCN)C(=O)N[C@@H](CCC(N)=O)C(=O)N[C@@H](C)C(=O)N[C@@H](C)C(=O)NC(C)(C)C(=O)N[C@@H](CCC(=O)O)C(=O)N[C@@H](Cc1ccccc1)C(=O)N[C@H](C(=O)N[C@@H](CC(N)=O)C(=O)N[C@@H](Cc1c[nH]c2ccccc12)C(=O)N[C@@H](CC(C)C)C(=O)N[C@@H](CC(C)C)C(=O)N[C@@H](C)C(=O)NCC(=O)NCC(=O)N1CCC[C@H]1C(=O)N[C@@H](CO)C(=O)N[C@@H](CO)C(=O)NCC(=O)N[C@@H](C)C(=O)N1CCC[C@H]1C(=O)N1CCC[C@H]1C(=O)N1CCC[C@H]1C(=O)N[C@@H](CO)C(=O)N[C@@H](CCCCN)C(N)=O)C(C)C [Compound 113] | 10 to 100 | 10 to 100 |  |  | 10 to 100 | 10 to 100 | 52 | 52 | 89 | 89 |  |  |  |  |  | 
6 | CCCCCCCCCCCCCCCC(=O)N[C@@H](CCC(=O)NCCCC[C@H](NC(=O)[C@H](CO)NC(=O)[C@@H]1CCCN1C(=O)[C@@H]1CCCN1C(=O)[C@@H]1CCCN1C(=O)[C@H](C)NC(=O)CNC(=O)[C@H](CO)NC(=O)[C@H](CO)NC(=O)[C@@H]1CCCN1C(=O)CNC(=O)CNC(=O)[C@H](C)NC(=O)[C@H](CC(C)C)NC(=O)[C@H](CC(C)C)NC(=O)[C@H](Cc1c[nH]c2ccccc12)NC(=O)[C@H](CC(N)=O)NC(=O)[C@@H](NC(=O)[C@H](Cc1ccccc1)NC(=O)[C@H](CCC(=O)O)NC(=O)C(C)(C)NC(=O)[C@H](C)NC(=O)[C@H](C)NC(=O)[C@H](CCC(N)=O)NC(=O)[C@H](CCCCN)NC(=O)[C@H](CC(=O)O)NC(=O)[C@H](CC(C)C)NC(=O)[C@H](Cc1ccc(O)cc1)NC(=O)[C@@H](NC(=O)[C@H](CO)NC(=O)[C@H](Cc1ccc(O)cc1)NC(=O)[C@H](CC(=O)O)NC(=O)[C@H](CO)NC(=O)[C@@H](NC(=O)[C@H](Cc1ccccc1)NC(=O)[C@@H](NC(=O)CNC(=O)[C@H](CCC(=O)O)NC(=O)CCNC(=O)CCCN1C(=O)c2ccccc2C1=O)[C@@H](C)O)[C@@H](C)O)[C@@H](C)CC)C(C)C)C(N)=O)C(=O)O [Compound 115] |  |  |  |  |  |  | 67 | 67 | 91 | 91 | 1 to 10 | 1 to 10 | 1 to 10 | 1 to 10 |  | 
